Laboratory results from US6642256B2, “Piperidine derivatives as subtype selective N-Methyl-D-Aspartate antagonists” (Warner-Lambert Company LLC, priority 2000, dated 2003).

Molecular target: NR1A/NR2B NMDA receptor (Rattus norvegicus, UniProt P35439+Q00960)
Test: Electrophysiological NR1A/NR2B assay in Xenopus oocytes (two-electrode voltage clamp)
Assay type: cell-based
Settings: Table 1; oocytes expressing NR1A/NR2B, currents activated by glutamate and glycine
Source text: I. Electrophysiological assays at NMDA receptor subunits (in vitro):
(i) Preparation of subunit RNA's:
cDNA clones encoding the NR1A, NR2A, NR2B, and NR2C rat NMDA receptor subtypes were used. (See, Moriyoshi et al., Nature (Lond.), 1991;354:31-37; Kutsuwada et al., Nature (Lond.), 1992;358:36-41; Monyer et al., Science (Washington, D.C.) 1992;256:1217-1221; Ikeda et al., FEBS Lett. 1992;313: 34-38; Ishii et al., J. Biol. Chem., 1993;268:2836-2843 for details of these clones or their mouse homologs). The clones were transformed into appropriate host bacteria and plasmid preparations were made with conventional DNA purification techniques. A sample of each clone was linearized by restriction enzyme digestion […] was synthesized with T3 RNA polymerase. The cRNA was diluted to 400 ng/μl and stored in 1 μl aliquots at −80° C. until injection.
(ii) The Xenopus oocyte expression system: […]
Electrical recordings were made using a conventional two-electrode voltage clamp (Dagan TEV-200) over periods ranging between 3 to 21 days following injection. […] Inhibitory potency of the novel antagonists of this invention was assessed on responses elicited by fixed concentrations of glutamate and glycine agonists, by measuring reductions in current induced by progressively increasing concentrations of invention compounds. […]

Chain of NR1A/NR2B NMDA receptor (Q00960 27-1482, other chains not shown): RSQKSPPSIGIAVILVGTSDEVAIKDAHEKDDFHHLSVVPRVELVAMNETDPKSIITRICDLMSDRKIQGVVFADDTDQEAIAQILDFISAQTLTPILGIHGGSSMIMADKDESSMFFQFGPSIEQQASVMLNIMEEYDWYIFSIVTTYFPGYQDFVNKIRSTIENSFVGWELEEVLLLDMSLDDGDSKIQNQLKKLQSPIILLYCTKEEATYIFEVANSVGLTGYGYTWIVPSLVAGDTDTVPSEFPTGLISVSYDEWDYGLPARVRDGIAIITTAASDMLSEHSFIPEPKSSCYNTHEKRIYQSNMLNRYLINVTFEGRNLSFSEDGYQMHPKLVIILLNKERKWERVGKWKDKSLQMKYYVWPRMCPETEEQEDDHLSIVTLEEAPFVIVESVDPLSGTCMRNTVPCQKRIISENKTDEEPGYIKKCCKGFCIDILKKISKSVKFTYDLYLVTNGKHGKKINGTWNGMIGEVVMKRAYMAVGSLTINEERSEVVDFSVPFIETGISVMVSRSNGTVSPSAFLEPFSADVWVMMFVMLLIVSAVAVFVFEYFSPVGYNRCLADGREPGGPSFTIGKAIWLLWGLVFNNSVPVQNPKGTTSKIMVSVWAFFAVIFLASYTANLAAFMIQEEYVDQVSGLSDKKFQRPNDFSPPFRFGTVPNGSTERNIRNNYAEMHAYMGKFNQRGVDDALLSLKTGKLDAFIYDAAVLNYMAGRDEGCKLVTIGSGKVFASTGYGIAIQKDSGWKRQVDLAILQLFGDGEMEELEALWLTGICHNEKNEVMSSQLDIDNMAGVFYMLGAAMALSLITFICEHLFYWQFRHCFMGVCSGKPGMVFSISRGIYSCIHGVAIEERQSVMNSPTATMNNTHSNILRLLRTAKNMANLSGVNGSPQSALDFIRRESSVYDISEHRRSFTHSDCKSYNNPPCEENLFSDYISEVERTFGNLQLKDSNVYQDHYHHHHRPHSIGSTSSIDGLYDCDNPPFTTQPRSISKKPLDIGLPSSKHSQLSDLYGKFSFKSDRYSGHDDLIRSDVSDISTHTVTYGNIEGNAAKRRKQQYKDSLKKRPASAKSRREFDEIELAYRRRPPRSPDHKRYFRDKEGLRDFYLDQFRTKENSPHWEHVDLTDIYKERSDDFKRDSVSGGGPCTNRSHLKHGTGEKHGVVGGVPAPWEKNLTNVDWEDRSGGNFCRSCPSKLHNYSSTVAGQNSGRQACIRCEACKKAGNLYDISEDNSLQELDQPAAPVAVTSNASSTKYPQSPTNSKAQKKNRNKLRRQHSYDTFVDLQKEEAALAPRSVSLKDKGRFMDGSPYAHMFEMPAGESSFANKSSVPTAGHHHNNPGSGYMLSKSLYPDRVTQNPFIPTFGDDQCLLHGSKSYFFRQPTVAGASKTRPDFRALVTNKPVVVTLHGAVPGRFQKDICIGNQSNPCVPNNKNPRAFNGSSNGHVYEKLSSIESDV

In the case of O=c1[nH]c2ccc(C3=NOC(CN4CCC(Cc5ccccc5)CC4)C3)cc2o1 (racemic) [Example 1, 6-[5-(4-Benzylpiperidin-1-ylmethyl)-4,5-dihydroisoxazol-3-yl]-3H-benzoxazol-2-one], the IC50 is reported as 0.08 µM.
